Source: a compilation of properties of binary mixtures (doi:10.1007/s10953-014-0257-1)

Assay: xn = mol fraction of the nth substance listed
Conditions: 101 kPa

CCCC[N+]1(C)CCCC1.N#C[C-](C#N)C#N + c1ccc2sccc2c1
viscosity [mPa·s]
Conditions | x2 = 0 | x2 = 0.1112 | x2 = 0.2212 | x2 = 0.3565 | x2 = 0.5267 | x2 = 0.6111 | x2 = 0.6767
308.15 K | – | 18.8 | 17 | 14.78 | – | 10.45 | 9.23
318.15 K | 15.44 | 14.1 | 12.77 | 11.13 | 9.01 | 7.87 | 6.89
328.15 K | 12 | 10.97 | 9.95 | 8.69 | – | 6.19 | 5.41
338.15 K | 9.59 | 8.77 | 7.96 | – | 5.68 | 4.98 | 4.36
348.15 K | 7.81 | 7.16 | 6.49 | 5.67 | 4.65 | 4.1 | 3.59
358.15 K | 6.47 | 5.93 | 5.38 | 4.74 | 3.88 | 3.44 | 3.03

c1ccc2sccc2c1 + CCCC[N+]1(C)CCCC1.N#C[C-](C#N)C#N
x1 = 1
Conditions | viscosity [mPa·s]
308.15 K | 2.94
318.15 K | 2.06
328.15 K | 1.74
338.15 K | 1.49
348.15 K | 1.29
358.15 K | 1.14
